Test systems include Escherichia coli; Listeria innocua; Micrococcus luteus A270; Bacillus subtilis; Escherichia coli JW0013.
Test in all cases: ≥ marks a high value that may be exact or a test limit, other limits are often not marked, values filed in µg/mL are converted to µM
For assay [1], the system named is Escherichia coli NCIMB 11843.
Assay [2] deals with Staphylococcus aureus RN4220.
Assay [3] has as its system Cronobacter sakazakii DSM 4485.
In assay [4] the test system is Staphylococcus aureus RF122.
Assay [5] has as its system Klebsiella pneumoniae NCIMB 13218.
Assay [6] relates to Staphylococcus aureus NCTC 8325-4.
In assay [7] the test system is Cronobacter sakazakii ATCC BAA-894.
The subject of assay [8] is Salmonella enterica subsp. enterica serovar Typhimurium LT2.
Assay [9] concerns Staphylococcus aureus SA113.
The subject of assay [10] is Cronobacter sakazakii DPC 6440.
Assay [11] deals with Cronobacter muytjensii ATCC 51329.
Assay [12] concerns Staphylococcus aureus Newman.
The test system of assay [13] is Pseudomonas fluorescens NCIMB 9046.
For assay [14], the system named is Pseudomonas aeruginosa ATCC 9027.
The test system of assay [15] is Escherichia coli ATCC 25922.
For assay [16], the system named is Staphylococcus aureus ATCC 2592.
The test system of assay [17] is Candida albicans ATCC 2002.
Assay [18] has as its system Staphylococcus aureus USA 100.
Assay [19] concerns Pseudomonas aeruginosa ATCC 27853.

Molecules are shown by their SMILES. ≈ marks a conversion by molar mass, not a printed value.

Regarding `CC[C@H](C)[C@H](N)C(=O)N[C@@H](CCCCN)C(=O)N[C@@H](Cc1cnc[nH]1)C(=O)N[C@@H](CCCN=C(N)N)C(=O)NCC(=O)N[C@@H](CC(C)C)C(=O)N1CCC[C@H]1C(=O)N[C@@H](CCC(N)=O)C(=O)N[C@@H](CCC(=O)O)C(=O)O` [IKHRGLPQE], the MIC (in general, the lowest concentration that inhibits growth of the organism) in [1] was at least 1250 µM; in [2], at least 1250 µM; in [3], at least 2500 µM; in [4], at least 625 µM; in [5], at least 1250 µM; in assay [6] it was at least 1250 µM. Also, the MIC was at least 2500 µM in [7]; at least 1250 µM in assay [8]; at least 1250 µM in assay [9]; at least 312 µM in assay [10]; at least 1250 µM in assay [11]; at least 1250 µM in assay [12]. This compound had an MIC in assay [13] of at least 2500 µM.

In the case of `CC[C@H](C)[C@H](N)C(=O)N[C@@H](CCCCN)C(=O)N[C@@H](C)C(=O)N[C@@H](CCC(N)=O)C(=O)NCC(=O)N[C@@H](CC(C)C)C(=O)N1CCC[C@H]1C(=O)N[C@@H](CCC(N)=O)C(=O)N[C@@H](CCC(=O)O)C(=O)O` [IKAQGLPQE], the MIC is at least 1250 µM in [1]; at least 1250 µM in assay [2]; at least 2500 µM in [3]; at least 1250 µM in assay [4]; at least 1250 µM in [5]; at least 1250 µM in [6]. Further, the MIC was at least 2500 µM in [7]; at least 1250 µM in assay [8]; at least 1250 µM in [9]; at least 625 µM in [10]; at least 2500 µM in [11]; at least 1250 µM in assay [12]. The MIC in assay [13] was at least 1250 µM.

As for `CC(C)C[C@H](NC(=O)CNC(=O)[C@H](Cc1ccccc1)NC(=O)[C@H](CC(C)C)NC(=O)[C@H](CCCN=C(N)N)NC(=O)[C@H](CC(C)C)NC(=O)[C@H](Cc1c[nH]c2ccccc12)NC(=O)CNC(=O)CNC(=O)[C@H](CO)NC(=O)[C@H](CCCCN)NC(=O)[C@H](CC(C)C)NC(=O)[C@H](C)NC(=O)[C@@H](N)CC(C)C)C(=O)N[C@@H](CCCCN)C(=O)N[C@@H](CC(=O)O)C(=O)N[C@@H](CCCCN)C(=O)N[C@@H](CCCCN)C(=O)N[C@@H](Cc1cnc[nH]1)C(N)=O` [LALKSGGWLRLFGLKDKKH], the MIC is 9 µM (≈ 19.5 µg/mL) in [14], 35 µM (≈ 75.8 µg/mL) in [15], 17 µM (≈ 36.8 µg/mL) in assay [16] and at least 35 µM in assay [17].

In the case of `CC(C)C[C@H](NC(=O)[C@H](CC(C)C)NC(=O)[C@H](CO)NC(=O)[C@H](Cc1cnc[nH]1)NC(=O)[C@H](CO)NC(=O)[C@H](CC(C)C)NC(=O)[C@H](CC(C)C)NC(=O)[C@H](CCCCN)NC(=O)[C@H](Cc1ccccc1)NC(=O)[C@H](CC(N)=O)NC(=O)[C@@H](N)C(C)C)C(=O)O` [VNFKLLSHSLL], the MIC was 98 µM (≈ 125 µg/mL) against Escherichia coli, 24 µM (≈ 30.5 µg/mL) against Listeria innocua and 24 µM (≈ 30.5 µg/mL) against Micrococcus luteus A270.

As for `CC[C@H](C)[C@H](N)C(=O)N[C@@H](CCCN=C(N)N)C(=O)N[C@@H](Cc1cnc[nH]1)C(=O)N[C@@H](CCC(N)=O)C(=O)NCC(=O)N[C@@H](CC(C)C)C(=O)N1CCC[C@H]1C(=O)N[C@@H](CCC(N)=O)C(=O)N[C@@H](CCC(=O)O)C(=O)O` [IRHQGLPQE], the MIC is at least 1250 µM in assay [1]; at least 2500 µM in assay [2]; at least 1250 µM in assay [3]; at least 625 µM in assay [4]; at least 2500 µM in assay [5]; at least 2500 µM in assay [6]. For the same compound, the MIC in assay [7] is at least 625 µM; in [8] it was at least 2500 µM; in assay [9] it was at least 2500 µM; in [10] it was at least 1250 µM; in assay [11] it was at least 1250 µM; in assay [12], at least 2500 µM. In [13], this compound showed an MIC of at least 1250 µM.

For the compound `NC(=O)[C@H](CCCN=C(N)N)NC(=O)[C@H](Cc1cnc[nH]1)NC(=O)[C@H](CCCN=C(N)N)NC(=O)[C@@H](N)Cc1cnc[nH]1` [HRHR], the MIC in assay [18] was at least 100 µM.

In the case of `CC(C)C[C@H](NC(=O)[C@H](CC(C)C)NC(=O)[C@H](CC(N)=O)NC(=O)[C@H](CCC(=O)O)NC(=O)[C@H](CC(N)=O)NC(=O)[C@H](CC(C)C)NC(=O)[C@@H](N)C(C)C)C(=O)N[C@@H](Cc1cnc[nH]1)C(=O)O` [VLNENLLH], the MIC was at least 2500 µM in [1]; at least 1250 µM in [2]; at least 1250 µM in assay [3]; at least 1250 µM in assay [4]; at least 1250 µM in assay [5]; at least 1250 µM in assay [6]. In addition, the MIC was at least 1250 µM in [7]; 32 µM (≈ 30.4 µg/mL) in assay [19]; at least 2500 µM in assay [8]; at least 1250 µM in assay [9]; at least 1250 µM in assay [10]; at least 1250 µM in assay [11]. For the same compound, the MIC in assay [12] and in assay [13] was at least 1250 µM throughout.

On to `CC(C)C[C@H](NC(=O)[C@H](CC(C)C)NC(=O)[C@H](CC(N)=O)NC(=O)[C@H](C)NC(=O)[C@H](CC(N)=O)NC(=O)[C@H](CC(C)C)NC(=O)[C@@H](N)C(C)C)C(=O)N[C@@H](CCCN=C(N)N)C(=O)O` [VLNANLLR], for which the MIC in assay [1] is at least 2500 µM; in assay [2], at least 1250 µM; in assay [3], at least 1250 µM; in [4], at least 1250 µM; in assay [5], at least 2500 µM; in assay [6] it was at least 1250 µM. Besides, the MIC is at least 2500 µM in assay [7]; 32 µM (≈ 29.2 µg/mL) in assay [19]; at least 2500 µM in assay [8]; at least 1250 µM in assay [9]; at least 1250 µM in assay [10]; at least 2500 µM in assay [11]. Moreover, the MIC in [12] and in assay [13] was at least 1250 µM each time.

As for `CC[C@H](C)[C@H](NC(=O)CNC(=O)[C@H](Cc1c[nH]c2ccccc12)NC(=O)[C@H](C)NC(=O)[C@H](CCCCN)NC(=O)[C@H](C)N)C(=O)NCC(=O)NCC(=O)N[C@@H](Cc1cnc[nH]1)C(=O)N[C@H](C(=O)N[C@H](C(=O)NCC(=O)N[C@@H](CCC(N)=O)C(=O)N[C@H](C(=O)N[C@H](C(=O)NCC(=O)N[C@H](C(=O)N[C@@H](CCCN=C(N)N)C(=O)N[C@H](C(=O)N[C@@H](CCCN=C(N)N)C(=O)NCC(=O)N[C@@H](CC(C)C)C(=O)N[C@@H](CS)C(=O)NCC(=O)N[C@@H](CC(N)=O)C(=O)N[C@H](C(=O)O)C(C)C)[C@@H](C)CC)C(C)C)C(C)C)[C@@H](C)CC)[C@@H](C)CC)C(C)C` [AKAWGIGGHVIGQIVGVRIRGLCGNV], the MIC amounted to 9.5 µM (≈ 25 µg/mL) in [15], 4.79 µM (≈ 12.6 µg/mL) in assay [16] and 19 µM (≈ 50 µg/mL) in assay [17].

Regarding `CC[C@H](C)[C@H](NC(=O)[C@H](C)NC(=O)[C@H](CS)NC(=O)[C@@H](NC(=O)[C@@H](NC(=O)[C@@H](NC(=O)CNC(=O)[C@@H](NC(=O)[C@@H](NC(=O)[C@@H](NC(=O)[C@H](C)NC(=O)[C@H](Cc1ccccc1)NC(=O)[C@H](CC(C)C)NC(=O)[C@H](CCCN=C(N)N)NC(=O)[C@H](CCCN=C(N)N)NC(=O)[C@H](CC(C)C)NC(=O)CNC(=O)CNC(=O)[C@@H](NC(=O)[C@@H](N)Cc1ccccc1)[C@@H](C)CC)[C@@H](C)O)C(C)C)C(C)C)[C@@H](C)O)C(C)C)C(C)C)C(=O)N[C@@H](CC(N)=O)C(=O)N[C@@H](CCCCN)C(=O)N[C@@H](CC(C)C)C(=O)NCC(=O)NCC(=O)NCC(=O)O` [FIGGLRRLFATVVGTVVCAINKLGGG], the MIC was at least 38.2 µM in the assay with Bacillus subtilis, 4.77 µM (≈ 12.5 µg/mL) in assay [15], 4.77 µM (≈ 12.5 µg/mL) in [16] and 4.77 µM (≈ 12.5 µg/mL) in [17].

The compound `CC[C@H](C)[C@H](NC(=O)[C@H](CCCN=C(N)N)NC(=O)[C@H](CCCN=C(N)N)NC(=O)[C@@H]1CCCN1C(=O)[C@@H]1CCCN1C(=O)[C@H](CCCN=C(N)N)NC(=O)[C@@H]1CCCN1C(=O)[C@H](CCCN=C(N)N)NC(=O)[C@@H]1CCCN1C(=O)[C@H](CC(C)C)NC(=O)[C@H](Cc1ccc(O)cc1)NC(=O)[C@H](CC(=O)O)NC(=O)[C@@H]1CCCN1C(=O)[C@H](CCCCN)NC(=O)[C@H](CC(=O)O)NC(=O)[C@@H](N)C(C)C)C(=O)N[C@@H](Cc1ccc(O)cc1)C(=O)N[C@@H](CC(N)=O)C(=O)N[C@@H](CCCN=C(N)N)C(N)=O` [VDKPDYLPRPRPPRRIYNR] displayed an MIC with Escherichia coli JW0013 of 1.37 µM (≈ 3.3 µg/mL).

The values are drawn from DBAASP.
